The results in this text go back to PMC3160846 (PLoS ONE, 2011).

Format in all cases: cell-based, Human
One assay has as its system A549 cells. The assay is described as follows: Clonogenic assay, A549. The protocol:
(§1) Human lung adenocarcinoma A549 cells and NTUB1 bladder cancer cells were maintained in RPMI supplied with 10% fetal bovine serum. […] KB-derived MRP1-expressing cell line, KB-7D, was maintained in growth medium supplemented with 7 µM VP-16.
(§2) Two hundred cells in logarithmic growth phase were seeded in a 6-well plate. The cells were exposed to various concentrations of the test drugs for a three-generation period. At the end of the incubation period, cells were fixed and stained with 50% ethanol containing 0.5% methylene blue for 30 min. The plates were washed five times with water and allowed to air-dry. Colonies were countered manually. […] Each value represents the average of at least three independent experiments run in triplicates.

For another assay, the system named is HT29 cells. Description: Clonogenic assay, HT29. The protocol:
as §1, §2

The subject of another assay is OECM-1 cells. Description: Clonogenic assay, OECM-1. The protocol: as §1, §2
For the next assay, the system named is HONE-1 cells. Description: Clonogenic assay, HONE-1. The protocol: as §1, §2
The test system of a further assay is KB cells. The assay is described as follows: Clonogenic assay, KB. The protocol: as §1, §2
Another assay deals with NTUB1 cells. Description: Clonogenic assay, NTUB1. The protocol:
as §1, §2

A further assay concerns MV4-11 cells. Description: Clonogenic assay, MV4-11. The protocol: as §1, §2
The next assay relates to IM9 cells. The assay is described as follows: Clonogenic assay, IM9. The protocol:
as §1, §2

The next assay relates to KB-VIN10 cells. Description: Clonogenic assay, KB-VIN10. The protocol: as §1, §2
In a further assay the test system is KB-S15 cells. The assay is described as follows: Clonogenic assay, KB-S15. The protocol: as §1, §2
For another assay, the system named is NTU0.017 cells. Description: Clonogenic assay, NTU0.017. The protocol:
as §1, §2

Each structure is given as a SMILES string.

In the case of `CO[C@@H](C(=O)N1Cc2n[nH]c(NC(=O)c3ccc(N4CCN(C)CC4)cc3)c2C1)c1ccccc1` [PHA-739358], the “Fold difference as compare to the IC50 of BPR1K653” value is 6 fold in the assay on A549 cells (A549); 4 fold with HT29 cells (HT29); 5 fold with OECM-1 cells (OECM-1); 5 fold in the assay on HONE-1 cells (HONE-1); 33 fold with KB cells; 51 fold in the assay with NTUB1 cells (NTUB1). Further, the “Fold difference as compare to the IC50 of BPR1K653” value is 17 fold in the assay on MV4-11 cells (MV4-11) and 113 fold in the assay with IM9 cells (IM9). The IC50 in the assay on A549 cells (Homo sapiens, A549, lung, p53 wild-type, MDR1 negative, read-out: IC50, anti-proliferative activity) was determined as 56 ± 8 nM; in the assay on HT29 cells (Homo sapiens, HT-29, HT29, colon, p53 mutant, MDR1 negative, read-out: IC50, anti-proliferative activity) it was 48 ± 8 nM; with OECM-1 cells (Homo sapiens, OECM1, OECM-1, oral, p53 mutant, MDR1 negative, read-out: IC50, anti-proliferative activity), 642 ± 68 nM; in the assay with HONE-1 cells (Homo sapiens, HONE1, HONE-1, oral, p53 mutant, MDR1 negative, read-out: IC50, anti-proliferative activity), 59 ± 16 nM; with KB cells (Homo sapiens, cervical, p53 wild-type, MDR1 negative (parental), read-out: IC50, anti-proliferative activity) it was 400 ± 100 nM; with NTUB1 cells (Homo sapiens, NTUB1, bladder, MDR1 negative (parental), read-out: IC50, anti-proliferative activity) it was 405 ± 134 nM. Moreover, the IC50 was 86 ± 11 nM in the assay with MV4-11 cells (Homo sapiens, MV4-11, leukemia, p53 mutant, MDR1 negative, read-out: IC50, anti-proliferative activity); 450 ± 12 nM with IM9 cells (Homo sapiens, IM9, lymphoma, p53 wild-type, MDR1 negative, read-out: IC50, anti-proliferative activity); greater than 25000 nM with KB-VIN10 cells (Homo sapiens, KB-VIN10, vincristine resistant, MDR1 ↑, read-out: IC50, anti-proliferative activity); 4700 nM in the assay on KB-S15 cells (Homo sapiens, KB-S15, paclitaxol resistant, MDR1 ↑, read-out: IC50, anti-proliferative activity); greater than 50000 nM with NTU0.017 cells (Homo sapiens, NTU0.017, paclitaxol resistant, MDR1 ↑, read-out: IC50, anti-proliferative activity). The figures for the “Fold difference as compare to the IC50 in the respective parental cells” value in the assay with KB-VIN10 cells (KB-VIN10 vs KB), with KB-S15 cells (KB-S15 vs KB) and in the assay with NTU0.017 cells (NTU0.017 vs NTUB1) were greater than 63 fold, 12 fold and greater than 123 fold, respectively.
